# Data published in paper PMC6020762, “An Integrative Volatile Terpenoid Profiling and Transcriptomics Analysis for Gene Mining and Functional Characterization of AvBPPS and AvPS Involved in the Monoterpenoid Biosynthesis in Amomum villosum” (Frontiers in Plant Science, 2018).
# T1: AvBPPS (AvTPS3) (Wurfbainia villosa, UniProt A0A2Z4K4Q8)
# T1 construct: gene TPS3; predicted 25-residue N-terminal transit peptide removed (full ORF 596 aa); E. coli Rosetta (DE3); Ni column
# T1 sequence (A0A2Z4K4Q8 26-596): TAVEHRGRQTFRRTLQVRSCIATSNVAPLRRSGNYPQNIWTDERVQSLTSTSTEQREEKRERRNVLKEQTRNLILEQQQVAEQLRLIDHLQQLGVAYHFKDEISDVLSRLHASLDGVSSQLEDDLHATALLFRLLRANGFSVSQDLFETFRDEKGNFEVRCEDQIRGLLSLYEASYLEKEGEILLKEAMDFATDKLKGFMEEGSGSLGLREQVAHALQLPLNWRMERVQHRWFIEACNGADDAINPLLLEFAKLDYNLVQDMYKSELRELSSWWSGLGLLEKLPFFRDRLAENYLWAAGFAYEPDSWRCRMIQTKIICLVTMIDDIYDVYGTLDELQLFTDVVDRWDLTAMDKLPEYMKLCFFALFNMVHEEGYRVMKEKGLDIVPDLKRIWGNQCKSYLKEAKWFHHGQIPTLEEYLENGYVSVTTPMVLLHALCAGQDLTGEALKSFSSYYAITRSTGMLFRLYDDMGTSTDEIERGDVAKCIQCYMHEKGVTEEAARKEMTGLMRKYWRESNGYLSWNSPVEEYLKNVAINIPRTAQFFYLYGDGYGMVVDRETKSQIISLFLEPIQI
# B1: AvPS (AvTPS1) (Wurfbainia villosa) (protein)
# chain: AAEESQSLSSTTSRRSGNYQPSIWTHDRIQSLTLSHAAADEEDHAEEIKLLKYQTSKLMEEKKGRVEEQLQLIDHLQQLGVAYHFKDEIKDTLRGFHASFEDVSLQLRDNLHASALLFRLLRENGFSVSEDIFKKFKDEKAGQFEDRLQSQAEGLLSLYEASYLEKDGEELLHEAREFTTKHLKNLLEEEGSLKPGLIREQVAHALELPLNWRFQRLHTKWFIGAWQRDPAMDPALLGLAKLDFNALQNIYKRELKEASRWWTDLGLPQKLPFFRDRLTENYLWTVGWAFEPDSWAFRELQTKINCFITLIDDVYDVYGTLDELELFTDIMERWDVNSIDKLPEYMKICFLAVFNTVNDAGYEVIRDKGVDIIPYLKRAWAELCKMYMREARWYHAGYTPTLDEYLDGAWISISGALILSTAYCMGNDLTKDDLDKFSTYPAVMHPSCMLLRLHDDFGTSTDELARGDVQKAVQCCMHERKVPEAVAREHIMQVMEAKWRLLNGNRVATSSFEEYFLNVAINIPRSAQFFYGQGDGYGKSDGETKKQVISLLIEPVQF
# notes: predicted 42-residue N-terminal transit peptide removed (full ORF 600 aa); E. coli Rosetta (DE3); Ni column
# Assays:
# [1] = target: T1, AvBPPS (AvTPS3); assay: GC-MS of borneol after alkaline phosphatase dephosphorylation; type: biochemical; conditions: from GPP; 25 mM HEPES pH 7.0, 5 mM MgCl2, 5 mM DTT, 30 °C, 1 h, then alkaline phosphatase 37 °C
# [2] = target: T1, AvBPPS (AvTPS3); assay: GC-MS product analysis; type: biochemical; conditions: 25 mM HEPES pH 7.0, 5 mM MgCl2, 5 mM DTT, 30 °C, 2 h
# [3] = substrate: CC(C)=CCC/C(C)=C/COP(=O)(O)OP(=O)(O)O; assay: GC-MS product assay, kinetic analysis; type: biochemical, Wurfbainia villosa; conditions: Mg2+ present
molecule,measurement,setting,value
CC1(C)C2CCC1(C)C(OP(=O)(O)OP(=O)(O)O)C2 (stereo not drawn) [bornyl diphosphate],GC-MS of borneol after alkaline phosphatase dephosphorylation,[1],we identified AvTPS3 as bornyl diphosphate synthase (AvBPPS) according to its most abundant product
CC(C)=CCC/C(C)=C/COP(=O)(O)OP(=O)(O)O [GPP],GC-MS product analysis,[2],AvTPS3 was found to catalyze GPP to produce three monoterpene compounds
B1,Km,[3],1.99 µM
